Test results reported in the OPERA property sets (Mansouri et al. 2018).

SMILES	logP
N#CC(C#N)=NNc1ccc([N+](=O)[O-])cc1	2.37
N#CC(C#N)=NNc1ccc(OC(F)(F)F)cc1	3.68
N#CC(C#N)=NNc1ccc(Cl)cc1	3.39
N#CC(C#N)=NNc1ccccc1[N+](=O)[O-]	2.9
N#CC(C#N)=NNc1cccc(Cl)c1	3.38
N#CC(C#N)=NNc1cccc(O)c1	2.28

Further lines, results first:

logP	SMILES
3.58	N#CC(C#N)=NNc1ccc(CCCl)cc1
2.1	CC(=O)c1ccc(NN=C(C#N)C#N)cc1
3.2	Cc1ccc(NN=C(C#N)C#N)cc1
1.83	CC(=O)Nc1ccc(NN=C(C#N)C#N)cc1
